# US20050222408A1, “Heterocyclic amides with anti-tuberculosis activity” (priority 2003, published 2005)
# Test system: Vero cells
# Assay: Cytotoxicity, alamar blue assay against Vero cells
# Type: cell-based
# Details: Chlorocebus sabaeus, Vero, read-out: ToxIC50
row,Compound,IC50
1,"O=C(NCCc1ccccc1)c1ccc([N+](=O)[O-])o1 [Compound 27, 5-Nitro-furan-2-carboxylic acid phenethyl-amide]",25.2 µg/mL

# Same assay, conditions: Chlorocebus sabaeus; Table 1; Vero cells, alamar blue; unit inferred; read-out: ToxIC50
row,Compound,IC50
1,"O=C(NC1CCCCC1)c1ccc([N+](=O)[O-])o1 [Compound 15, 5-Nitro-furan-2-carboxylic acid cyclohexylamide]",9.08 µg/mL
2,"O=C(NC12CC3CC(CC(C3)C1)C2)c1ccc([N+](=O)[O-])o1 [Compound 16, 5-Nitro-furan-2-carboxylic acid adamantan-1-ylamide]",9.43 µg/mL
3,"O=C(Nc1ccccc1)c1ccc([N+](=O)[O-])o1 [Compound 17, 5-Nitro-furan-2-carboxylic acid phenylamide]",2.19 µg/mL
4,"COc1ccc(CNC(=O)c2ccc([N+](=O)[O-])o2)cc1 [Compound 20, 5-Nitro-furan-2-carboxylic acid 4-methoxy-benzylamide]",16.4 µg/mL
5,"O=C(NCc1ccccc1Cl)c1ccc([N+](=O)[O-])o1 [Compound 21, 5-Nitro-furan-2-carboxylic acid 2-chloro-benzylamide]",11.8 µg/mL
6,"COc1cc(CNC(=O)c2ccc([N+](=O)[O-])o2)cc(OC)c1OC [Compound 24, 5-Nitro-furan-2-carboxylic acid 3,4,5-trimethoxy-benzylamide]",23.6 µg/mL
7,"O=C(NC1CCc2ccccc21)c1ccc([N+](=O)[O-])o1 (stereo not drawn) [Compound 26, 5-Nitro-furan-2-carboxylic acid indan-1-ylamide]",10.3 µg/mL
8,"COc1ccc(CNC(=O)c2ccc(Br)o2)cc1 [Compound 32, 5-Bromo-furan-2-carboxylic acid 4-methoxy-benzylamide]",90.5 µg/mL

# Test system: M. tuberculosis H37Ra
# Assay: MIC against M. tuberculosis H37Ra, micro broth dilution in microtiter plates
# Details: M. tuberculosis H37Ra
row,Compound,anti-tuberculosis MIC activity
1,"O=C(NCc1cccc(N2CCC(Cc3ccccc3)CC2)c1)c1ccc([N+](=O)[O-])o1 [Compound 70, 5-Nitro-furan-2-carboxylic acid 3-(4-benzyl-piperidin-1-yl)-benzylamide]",extremely potent
2,O=C(c1ccc([N+](=O)[O-])o1)N1CCC(Cc2ccccc2)CC1 [Compound 72],good activity
3,O=C(c1ccc([N+](=O)[O-])o1)N1CCN(Cc2ccccc2)CC1 [Compound 73],good activity
4,COc1cc2c(cc1OC)CN(C(=O)c1ccc([N+](=O)[O-])o1)CC2 [Compound 75],very potent

# Same assay, conditions: Mycobacterium tuberculosis, H37RA, 168 h, read-out: TB MIC, Table 1; M. tuberculosis H37Ra, 7 days at 37° C., MIC90
row,Compound,MIC
1,"O=C(Nc1cccc(OCc2ccccc2)c1)c1ccc([N+](=O)[O-])o1 [Compound 37, 5-Nitro-furan-2-carboxylic acid(3-benzyloxy-phenyl)-amide]",12.5 µg/mL

# Same assay, conditions: Mycobacterium tuberculosis, H37RA, Table 6; M. tuberculosis H37Ra, MIC90
row,Compound,MIC
1,"O=C(c1ccc([N+](=O)[O-])o1)N1CCN(c2ncccn2)CC1 [Compound 81, (5-Nitro-furan-2-yl)-(4-pyrimidin-2-yl-piperazin-1-yl)-methanone]",0.1 µg/mL
2,"COc1ccc(CN2CCN(C(=O)c3ccc([N+](=O)[O-])o3)CC2)cc1 [Compound 85, [4-(4-Methoxy-benzyl)-piperazin-1-yl]-(5-nitro-furan-2-yl)-methanone]",0.1 µg/mL
3,"COc1cccc(CN2CCN(C(=O)c3ccc([N+](=O)[O-])o3)CC2)c1 [Compound 86, [4-(3-Methoxy-benzyl)-piperazin-1-yl]-(5-nitro-furan-2-yl)-methanone]",0.4 µg/mL
4,"O=C(c1ccc([N+](=O)[O-])o1)N1CCN(Cc2cccc(OCc3ccccc3)c2)CC1 [Compound 87, [4-(3-Benzyloxy-benzyl)-piperazin-1-yl]-(5-nitro-furan-2-yl)-methanone]",0.4 µg/mL
5,"CCN(CC)c1ccc(CN2CCN(C(=O)c3ccc([N+](=O)[O-])o3)CC2)cc1 [Compound 88, [4-(4-Diethylamino-benzyl)-piperazin-1-yl]-(5-nitro-furan-2-yl)-methanone]",0.4 µg/mL
6,"COc1ccc(CN2CCN(C(=O)c3ccc([N+](=O)[O-])o3)CC2)c(OC)c1 [Compound 89, [4-(2,4-Dimethoxy-benzyl)-piperazin-1-yl]-(5-nitro-furan-2-yl)-methanone]",0.2 µg/mL
7,"O=C(c1ccc([N+](=O)[O-])o1)N1CCN(Cc2ccc(F)cc2)CC1 [Compound 90, [4-(4-Fluoro-benzyl)-piperazin-1-yl]-(5-nitro-furan-2-yl)-methanone]",0.4 µg/mL
8,"CC(=O)c1ccc(N2CCN(C(=O)c3ccc([N+](=O)[O-])o3)CC2)cc1 [Compound 91, 1-{4-[4-(5-Nitro-furan-2-carbonyl)-piperazin-1-yl]-phenyl}-ethanone]",0.0031 µg/mL
9,"COc1ccc(N2CCN(C(=O)c3ccc([N+](=O)[O-])o3)CC2)cc1 [Compound 107, [4-(4-Methoxy-phenyl)-piperazin-1-yl]-(5-nitro-furan-2-yl)-methanone]",0.05 µg/mL
10,"O=C(c1ccc(F)cc1)N1CCN(C(=O)c2ccc([N+](=O)[O-])o2)CC1 [Compound 109, [4-(4-Fluoro-benzoyl)-piperazin-1-yl]-(5-nitro-furan-2-yl)-methanone]",0.05 µg/mL
11,"COc1ccc(C(=O)N2CCN(C(=O)c3ccc([N+](=O)[O-])o3)CC2)cc1 [Compound 110, [4-(4-Methoxy-benzoyl)-piperazin-1-yl]-(5-nitro-furan-2-yl)-methanone]",0.05 µg/mL
12,"CN1CCN(/N=C/c2ccc(CNC(=O)c3ccc([N+](=O)[O-])o3)cc2)CC1 [Compound 111, 5-Nitro-furan-2-carboxylic acid 4-[(4-methyl-piperazin-1-ylimino)-methyl]-benzylamide]",0.1 µg/mL

# Same assay, conditions: Table 1; M. tuberculosis H37Ra, 7 days at 37° C., MIC90
row,Compound,TB MIC
1,COc1ccc(NC(=O)c2ccc([N+](=O)[O-])o2)cc1Cl [Compound 1],1.6 µg/mL
2,CN(C(=O)c1ccc([N+](=O)[O-])o1)c1ccccc1 [Compound 41],3.12 µg/mL
3,COc1ccc(N(C)C(=O)c2ccc([N+](=O)[O-])o2)cc1 [Compound 42],6.25 µg/mL
4,O=C(c1ccc([N+](=O)[O-])o1)N1CCc2ccccc21 [Compound 43],0.8 µg/mL
5,O=C(Nc1cccnc1)c1ccc([N+](=O)[O-])o1 [Compound 45],6.25 µg/mL
6,O=C(Nc1ccncc1)c1ccc([N+](=O)[O-])o1 [Compound 46],3.12 µg/mL
7,"O=C(NCc1ccccn1)c1ccc([N+](=O)[O-])o1 [Compound 49, 5-nitro-furan-2-carboxylic acid(pyridin-2-ylmethyl)-amide]",0.8 µg/mL
8,"COc1cccc2sc(NC(=O)c3ccc([N+](=O)[O-])o3)nc12 [Compound 50, 5-nitro-furan-2-carboxylic acid(4-methoxy-benzothiazol-2-yl)-amide]",1.6 µg/mL
9,"COc1cc(NC(=O)c2ccc([N+](=O)[O-])o2)ncn1 [Compound 51, 5-nitro-furan-2-carboxylic acid(6-methoxy-pyrimin-4-yl)-amide]",1.6 µg/mL

# Same assay, conditions: Table 5; M. tuberculosis H37Ra, MIC90
row,Compound,MIC
1,"O=C(NCc1ccc(N2CC[S+]([O-])CC2)cc1)c1ccc([N+](=O)[O-])o1 [Compound 93, 5-Nitro-furan-2-carboxylic acid 4-(1-oxo-¼-thiomorpholin-4-yl)-benzylamide]",0.8 µg/mL
2,"O=C(NCc1ccc(N2CCS(=O)(=O)CC2)cc1)c1ccc([N+](=O)[O-])o1 [Compound 94, 5-Nitro-furan-2-carboxylic acid 4-(1,1-dioxo-⅙-thiomorpholin-4-yl)-benzylamide]",6.25 µg/mL

# Same assay, conditions: Table 6; M. tuberculosis H37Ra, MIC90
row,Compound,MIC
1,"O=C(c1ccc([N+](=O)[O-])o1)N1CCN(c2ccc(F)cc2)CC1 [Compound 108, [4-(4-Fluoro-phenyl)-piperazin-1-yl]-(^5-nitro-furan-2-yl)-methanone]",0.025 µg/mL

# Same assay, conditions: quoted
row,Compound,MIC
1,CN(C(=O)c1ccc([N+](=O)[O-])o1)c1ccccc1 [Compound 41],3.1 µg/mL
